These are literature values, as cited in patent EP1136069A1, “Pharmaceutical compositions containing clodronates for high local tolerance intramuscular administration” (SPA SOCIETA' PRODOTTI ANTIBIOTICI S.p.A., priority 2000, dated 2001).

Structures are written as SMILES.

For the data set the following is noted: oral route.

As for `O=P(O)(O)C(Cl)(Cl)P(=O)(O)O` [clodronate], the bioavailability is given as 1-4%.
